Results published in the supplement of paper PMC10307832.

Key:
Assay in all cases: relative viability (nuclei count vs DMSO), 5 days (fraction); higher = more cells survive
[1] = compound: CC(C)Oc1cc(Nc2nc(N[C@@H](C)c3ccc(F)cn3)ncc2Cl)n[nH]1 [AZ23]
Outline: (§1)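 A plate was accepted only when its control CV was below 25% and the cells had doubled at least once. Viability is defined from nuclear counts as treated wells divided by vehicle wells, with the median taken across plates. That median covers lung cancer cell lines grown in 1536-well plates, dosed by pinning at five √10-spaced library-drug concentrations, and counted in MetaXpress from 4× Hoechst images after 5 days.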

[2] = compound: CC(C)S(=O)(=O)C1=CC=CC=C1NC2=NC(=NC(=C2Cl)N)NC3=C(C=C(C=C3)N4CCC(CC4)C(=O)N)OC [HG-5-88-01]
Outline: as §1

[3] = compound: CCCCCCCCCCCC1=C(O)C(=O)C=C(O)C1=O [Embelin]
Outline: as §1

[4] = compound: C[C@@H]1CN(CC(=O)Nc2ccc3c(c2)Cc2cccc(-c4cc(=O)cc(N5CCOCC5)o4)c2S3)C[C@H](C)O1
Outline: as §1

[5] = compound: Clc1ccc(Nc2nnc(Cc3ccncc3)c3ccccc23)cc1 [Vatalanib]
Outline: as §1

Cell Line	relative viability ([1]; 0.01 µM)	relative viability ([1]; 0.03162 µM)	relative viability ([1]; 0.3162 µM)	relative viability ([2]; 0.04 µM)	relative viability ([2]; 0.1265 µM)	relative viability ([2]; 0.4 µM)	relative viability ([2]; 1.265 µM)	relative viability ([2]; 4 µM)	relative viability ([3]; 0.08 µM)	relative viability ([3]; 0.8 µM)	relative viability ([3]; 2.53 µM)	relative viability ([3]; 8 µM)	relative viability ([4]; 0.04 µM)	relative viability ([4]; 0.1265 µM)	relative viability ([4]; 0.4 µM)	relative viability ([4]; 4 µM)	relative viability ([5]; 0.04 µM)	relative viability ([5]; 0.1265 µM)	relative viability ([5]; 0.4 µM)	relative viability ([5]; 1.265 µM)	relative viability ([5]; 4 µM)
LK-2	0.802	1.14	0.959	0.976	0.994	0.962	0.582	0.789	1.1	1.07	1.25	0.856	0.848	0.923	0.979	1.1	0.952	0.863	0.889	1.01	0.995
LOU-NH91	0.921	1.08	1.01	0.912	0.904	0.866	0.612	0.629	1.02	1.27	0.991	0.864	0.943	0.989	0.966	0.876	0.925	0.936	0.816	0.876	0.921
LU99A	1.04	0.998	0.941	0.963	0.958	0.873	1.02	0.907	1.08	1.07	1.08	0.948	0.86	1.05	1.15	0.975	1.03	1.02	1.06	0.951	0.923
LXF-289	1.17	1.04	1.02	1.04	1.03	0.976	0.974	0.986	1.04	1.04	1.01	1.09	0.974	1.01	1.04	0.976	1.05	0.935	1.02	0.958	1
NCI-H23	–	1.07	0.887	1.03	0.993	0.959	0.824	0.392	0.987	1.07	1.03	0.705	1.08	0.923	0.943	0.96	0.948	0.833	1.04	0.961	0.853
NCI-H322M	0.695	0.974	1.07	0.811	0.872	0.876	0.494	0.718	0.987	0.996	1.03	0.915	0.823	0.947	0.961	0.827	0.938	0.946	0.936	0.904	0.917
NCI-H358	1.03	1.03	1.04	0.88	0.879	0.794	0.34	0.311	1.02	0.982	1.09	1.15	0.989	0.905	0.958	0.673	1.02	0.911	0.986	0.962	0.955
NCI-H441	1.43	1.01	1.06	1.09	1.33	1.24	0.925	0.819	1.05	1.19	1.45	1.02	1.2	0.787	1.04	0.948	1.16	0.922	1.08	1.08	0.933
NCI-H460	1.03	1.08	1.07	1	0.953	0.954	0.99	1.03	1.01	1.03	1.04	0.997	0.934	0.963	1.06	0.938	1.03	0.924	1.01	0.947	0.984
NCI-H520	0.915	1.11	0.92	0.994	1.05	0.959	1	1.02	1.07	1.1	1.11	0.931	0.797	1.05	0.901	0.94	1.07	0.92	1.08	0.881	0.841
NCI-H522	1.04	1.12	1.09	1.04	0.903	0.849	0.804	0.706	1.01	1.13	1.15	0.821	0.77	1	1.11	0.864	1.1	0.767	0.966	0.917	0.876
NCI-H596	1.07	0.915	0.962	1.01	0.933	1.04	0.994	0.576	0.981	0.986	1.16	0.732	0.947	0.982	0.783	0.885	0.97	1.15	1.06	0.954	0.912
NCI-H647	0.949	1.04	1.22	1	0.97	0.832	0.971	1.1	0.985	1.25	1.08	0.914	0.882	0.976	1	0.734	1	0.943	0.933	0.916	0.85
NCI-H650	0.867	1.09	0.921	1.04	0.993	0.829	0.902	0.576	0.821	1.09	0.909	0.739	0.944	0.95	1.07	0.722	1.01	0.885	–	0.779	0.847
NCI-H661	1.05	1.04	0.967	0.992	1.01	1.1	1.01	1.01	1.01	1.06	1.02	1.04	0.864	0.97	0.951	0.916	0.975	0.971	0.983	0.906	0.988
NCI-H727	0.832	0.94	0.973	1.08	0.883	0.958	0.606	0.63	1.03	0.935	0.958	0.976	0.93	0.885	0.991	0.882	0.943	0.858	0.899	0.832	0.887

Cell Line	relative viability ([1]; 0.01 µM)	relative viability ([1]; 0.03162 µM)	relative viability ([1]; 0.3162 µM)	relative viability ([2]; 0.04 µM)	relative viability ([2]; 0.1265 µM)	relative viability ([2]; 0.4 µM)	relative viability ([2]; 1.265 µM)	relative viability ([2]; 4 µM)	relative viability ([3]; 0.08 µM)	relative viability ([3]; 0.8 µM)	relative viability ([3]; 2.53 µM)	relative viability ([3]; 8 µM)	relative viability ([4]; 0.04 µM)	relative viability ([4]; 0.1265 µM)	relative viability ([4]; 0.4 µM)	relative viability ([4]; 4 µM)	relative viability ([5]; 0.04 µM)	relative viability ([5]; 0.1265 µM)	relative viability ([5]; 0.4 µM)	relative viability ([5]; 1.265 µM)	relative viability ([5]; 4 µM)
NCI-H838	0.987	0.993	1	0.978	1.03	0.79	0.676	0.655	0.982	1.05	1.06	0.896	0.887	0.93	0.883	0.813	1.02	0.928	1.09	0.945	0.942
NCI-H1299	1.06	1.01	1.1	0.987	1.02	0.992	0.99	1.02	1.04	1.05	0.994	1.02	1.05	0.989	1	0.898	1.05	1.01	1.02	1	1.01
NCI-H1355	1.14	1.03	1.03	1.01	1.06	0.932	0.943	0.698	0.996	1.16	1.03	0.775	0.984	0.964	0.959	0.852	1.03	0.99	1.07	0.938	0.969
NCI-H1395	–	1.01	0.849	0.9	0.97	0.921	0.953	0.876	0.941	1.15	0.857	0.617	0.854	0.816	0.761	0.999	0.939	0.871	0.863	0.813	0.885
NCI-H1437	1.02	1.09	1	1.04	1.04	0.995	0.917	1.01	0.961	1.11	1.04	0.709	0.977	0.995	1.06	0.885	0.984	0.987	1.01	0.938	0.969
NCI-H1563	1.06	1.02	0.967	1.02	0.932	0.974	0.811	1.19	0.946	1.17	0.978	0.978	0.947	0.901	0.941	0.935	1.04	0.889	1.03	0.918	0.937
NCI-H1623	0.984	0.964	0.955	1.09	0.979	0.983	–	0.856	0.926	0.988	1.06	0.972	0.942	0.973	1.02	0.957	0.963	1.14	1.04	0.879	0.933
NCI-H1648	0.794	1.05	0.788	0.809	0.728	0.878	0.368	0.451	0.963	1.21	0.92	0.954	0.871	0.796	1.06	0.757	0.958	0.938	0.893	0.889	0.939
NCI-H1650	0.826	1.17	1.12	0.904	0.92	0.812	0.871	0.723	0.994	1.08	0.942	0.877	0.95	0.999	0.949	0.769	1.06	0.851	0.799	0.818	0.851
NCI-H1651	0.947	1.05	1.05	0.994	0.993	0.986	0.976	1.07	0.992	1.03	1.03	0.946	0.954	0.954	1.03	0.981	1.01	0.935	0.955	0.92	0.958
NCI-H1666	0.988	1.03	0.976	1.03	1.03	0.847	0.869	0.864	0.939	1.06	0.976	1.01	0.983	1.05	1.03	0.903	0.958	1.03	1.04	1	0.981
NCI-H1703	–	0.879	0.943	0.778	0.983	0.663	0.941	0.954	0.99	1.79	0.899	0.838	1.26	0.763	0.797	0.668	1.12	0.754	1.14	0.527	0.363
NCI-H1734	1.03	1.01	0.983	0.88	0.978	0.959	0.886	1.1	1.05	1.23	1.19	0.874	1.01	1.03	1.04	1.12	0.977	0.916	1.11	0.95	1.06
NCI-H1755	1.09	1.05	1.06	1.02	1.03	0.99	1.02	1.01	0.986	1.03	1.02	0.892	1.01	0.986	1.03	1.01	1.03	0.959	0.966	0.944	0.99
NCI-H1792	0.788	1.07	1.1	1.01	1.08	1	0.834	1.03	0.924	1.07	1.11	1.06	0.895	0.8	0.9	0.797	0.912	0.707	0.861	0.827	0.782
NCI-H1793	1.1	1.07	1.07	–	0.942	0.985	0.668	0.792	0.918	1.08	1.06	0.431	1.01	0.866	1.05	0.581	0.902	0.879	1.07	0.839	0.774
